Experiments:
factor Xa = assay: antifactor Xa activity of the active principle; type: biochemical; conditions: sodium salt
Description: The assay of the pentasaccharide in the receiver compartment was based on investigating its antifactor Xa activity. The assay was carried out either directly on the medium sample from the receiver compartment or after dilution, using a ROTACHROM HEPARIN 8® assay kit, with a complementary buffer for the assay instrument and the bovine antithrombin III, these various elements being supplied by the company STAGO, using a HITACHI 717 assay instrument. The calibration curve was established using a "Golden Standard" pentasaccharide solution to which an antifactor Xa activity equal to 13 units per ml was assigned.

[1] = administration of pentasaccharide sodium salt in mini pigs by iontophoresis at set current density; antifactor Xa plasma levels; type: in vivo, mini pigs of the YUCATAN strain
Description: Administration in mini pigs of pentasaccharide sodium salt by iontophoresis at a set current density.
Specialists consider mini pigs of the YUCATAN strain to be an excellent animal model for studying the administration in man of medicaments by iontophoresis. This is because the skin structure of this animal is very similar to that of human skin.
The following tests were carried out on the aforementioned mini pig with the aim of comparing the administration by iontophoresis of the sodium salt of the pentasaccharide used in Example 1 with administration by subcutaneous injection.
For these tests, pairs of adhesive electrode assemblies were formed, each pair comprising a donor electrode assembly, equipped with a reversible negative electrode (active electrode) and containing the pentasaccharide to be administered, and a passive electrode assembly formed by a positive electrode (back electrode) in contact with a second reservoir element containing an arbitrary (i.e. indifferent) electrolyte.
In the donor electrode assembly according to the invention, as well as in the reference donor assembly, the electrode 6 made of chloridized silver contained a quantity of silver chloride equivalent to 1.8 mAh/cm^2, thus allowing the electrode to sustain the quantity of electricity flowing through the electrodes over the duration of the iontophoretic treatment, namely 0.88 mAh/cm^2.
The primary electrolyte medium constituting the primary reservoir element 11 of the donor electrode assembly according to the invention, as well as the conducting, absorbent, porous material forming the reservoir element 11 of the reference electrode assembly, each consisted of a sheet of blotting paper made of cellulose fibres supplemented by polypropylene fibrils, having a surface area of 20 cm^2 and a thickness of 0.5 mm and being impregnated, to a level of 50 mg/cm^2, with an aqueous solution containing 2% by weight of pentasaccharide. Each reservoir element 11 contained in total 1 g of solution, i.e. 20 mg of pentasaccharide over 20 cm^2 of active surface (1 mg/cm^2). 20 mg of pentasaccharide were therefore employed in total per animal.
The selectively permeable membrane separating the recesses 2 and 15 of the donor electrode assembly according to the invention, that is to say separating the primary 11 and secondary 20 reservoir elements of the said electrode assembly, consisted of a 50 μm thick film of the polyether block amide PEBAX MV 1041 defined in Example 1.
In each passive electrode assembly, the positive electrode (back electrode) made of chloridized silver contained a quantity of silver chloride equivalent to 0.1 mAh/cm^2 and the reservoir element associated with this electrode consisted of a sheet of blotting paper made of cellulose fibres supplemented by polypropylene fibrils having a surface area of 20 cm^2 and a thickness of 0.5 mm and was impregnated with an aqueous solution of NaCl to contain 6% by weight of this salt.
An electric signal generator which could be connected to the electrodes of each pair of electrode assemblies, made it possible to deliver a continuous electric signal of controlled intensity between the said electrodes.
Five days before each test, the animals were catheterized in the two jugulars, as is well known for any experimentation in medicament administration, in order to make it possible to take regular blood samples intended for assaying the antifactor Xa activities and thereby to evaluate the quantities of active principle that pass through the skin to enter the circulatory system and therefore to check the effectiveness of the iontophoretic treatment.
The animals, fasted from the day before the experiments, were placed in specialized hammocks. […]

O=C(O)C1OC(OC2C(COS(=O)(=O)O)OC(OC3C(C(=O)O)OC(OC4C(COS(=O)(=O)O)OC(O)C(NS(=O)(=O)O)C4O)C(OS(=O)(=O)O)C3O)C(NS(=O)(=O)O)C2OS(=O)(=O)O)C(O)C(O)C1OC1OC(COS(=O)(=O)O)C(O)C(O)C1NS(=O)(=O)O (stereo not shown) [pentasaccharide]
antifactor Xa activity (factor Xa): 0.65 "Golden Standard" units per microgram | bioavailability for the in-vivo tests vs in-vitro utilization factors ([1]; Example 2 vs Example 1): higher than the utilization factors which were obtained for the in-vitro tests | Bioavailability ([1]; Test 2a: passive, no current): 0% | plasma level, Antifactor Xa ([1]; Test 2a: passive, no current, 0 h): 0 units/ml | plasma level, Antifactor Xa ([1]; Test 2a: passive, no current, 0.25 h): 0 units/ml | plasma level, Antifactor Xa ([1]; Test 2a: passive, no current, 0.50 h): 0 units/ml | plasma level, Antifactor Xa ([1]; Test 2a: passive, no current, 1.00 h): 0 units/ml | plasma level, Antifactor Xa ([1]; Test 2a: passive, no current, 2.00 h): 0 units/ml | plasma level, Antifactor Xa ([1]; Test 2a: passive, no current, 4.00 h): 0 units/ml | plasma level, Antifactor Xa ([1]; Test 2a: passive, no current, 6.00 h): 0 units/ml | plasma level, Antifactor Xa ([1]; Test 2a: passive, no current, 8.00 h): 0 units/ml | plasma level, Antifactor Xa ([1]; Test 2a: passive, no current, 10.00 h): 0 units/ml | plasma level, Antifactor Xa ([1]; Test 2a: passive, no current, 16.00 h): 0 units/ml | plasma level, Antifactor Xa ([1]; Test 2a: passive, no current, 24.00 h): 0 units/ml | plasma level, Antifactor Xa ([1]; Test 2a: passive, no current, 30.00 h): 0 units/ml | plasma levels (antifactor Xa), invention vs reference iontophoresis ([1]; Test 2b vs Test 2c): more than three times higher | plasma level, Antifactor Xa ([1]; Test 2b: iontophoresis, PEBAX MV 1041 membrane, 20 mg, 8 hours): 1 units/ml | plasma level, Antifactor Xa ([1]; Test 2b: iontophoresis, PEBAX MV 1041 membrane, 20 mg, 8 hours, 0 h): 0 units/ml | plasma level, Antifactor Xa ([1]; Test 2b: iontophoresis, PEBAX MV 1041 membrane, 20 mg, 8 hours, 0.25 h): 0.07 units/ml | plasma level, Antifactor Xa ([1]; Test 2b: iontophoresis, PEBAX MV 1041 membrane, 20 mg, 8 hours, 0.50 h): 0.14 units/ml | plasma level, Antifactor Xa ([1]; Test 2b: iontophoresis, PEBAX MV 1041 membrane, 20 mg, 8 hours, 1.00 h): 0.36 units/ml | plasma level, Antifactor Xa ([1]; Test 2b: iontophoresis, PEBAX MV 1041 membrane, 20 mg, 8 hours, 2.00 h): 0.81 units/ml | plasma level, Antifactor Xa ([1]; Test 2b: iontophoresis, PEBAX MV 1041 membrane, 20 mg, 8 hours, 4.00 h): 1.3 units/ml | plasma level, Antifactor Xa ([1]; Test 2b: iontophoresis, PEBAX MV 1041 membrane, 20 mg, 8 hours, 6.00 h): 0.98 units/ml | plasma level, Antifactor Xa ([1]; Test 2b: iontophoresis, PEBAX MV 1041 membrane, 20 mg, 8 hours, 10.00 h): 0.79 units/ml | plasma level, Antifactor Xa ([1]; Test 2b: iontophoresis, PEBAX MV 1041 membrane, 20 mg, 8 hours, 16.00 h): 0.38 units/ml | plasma level, Antifactor Xa ([1]; Test 2b: iontophoresis, PEBAX MV 1041 membrane, 20 mg, 8 hours, 24.00 h): 0.12 units/ml | plasma level, Antifactor Xa ([1]; Test 2b: iontophoresis, PEBAX MV 1041 membrane, 20 mg, 8 hours, 30.00 h): 0.04 units/ml | plasma level, Antifactor Xa ([1]; Test 2b: iontophoresis, PEBAX MV 1041 membrane, 20 mg, 8 hours, […]): 0.61 units/ml | plasma level, Antifactor Xa ([1]; Test 2c: reference iontophoresis, no membrane, 20 mg, 8 hours): 0.35 units/ml | plasma level, Antifactor Xa ([1]; Test 2c: reference iontophoresis, no membrane, 20 mg, 8 hours, 0 h): 0 units/ml | plasma level, Antifactor Xa ([1]; Test 2c: reference iontophoresis, no membrane, 20 mg, 8 hours, 0.25 h): 0.03 units/ml | plasma level, Antifactor Xa ([1]; Test 2c: reference iontophoresis, no membrane, 20 mg, 8 hours, 0.50 h): 0.05 units/ml | plasma level, Antifactor Xa ([1]; Test 2c: reference iontophoresis, no membrane, 20 mg, 8 hours, 1.00 h): 0.09 units/ml | plasma level, Antifactor Xa ([1]; Test 2c: reference iontophoresis, no membrane, 20 mg, 8 hours, 2.00 h): 0.13 units/ml | plasma level, Antifactor Xa ([1]; Test 2c: reference iontophoresis, no membrane, 20 mg, 8 hours, 4.00 h): 0.27 units/ml | plasma level, Antifactor Xa ([1]; Test 2c: reference iontophoresis, no membrane, 20 mg, 8 hours, 6.00 h): 0.29 units/ml | plasma level, Antifactor Xa ([1]; Test 2c: reference iontophoresis, no membrane, 20 mg, 8 hours, 10.00 h): 0.34 units/ml | plasma level, Antifactor Xa ([1]; Test 2c: reference iontophoresis, no membrane, 20 mg, 8 hours, 16.00 h): 0.11 units/ml | plasma level, Antifactor Xa ([1]; Test 2c: reference iontophoresis, no membrane, 20 mg, 8 hours, 24.00 h): 0.08 units/ml | plasma level, Antifactor Xa ([1]; Test 2c: reference iontophoresis, no membrane, 20 mg, 8 hours, 30.00 h): 0.01 units/ml | plasma level, Antifactor Xa ([1]; Test 2c: reference iontophoresis, no membrane, 20 mg, 8 hours, […]): 0.14 units/ml | plasma level, Antifactor Xa ([1]; Test 2d: subcutaneous injection 0.200 mg/kg, 0 h): 0 units/ml | plasma level, Antifactor Xa ([1]; Test 2d: subcutaneous injection 0.200 mg/kg, 0.25 h): 0.11 units/ml | plasma level, Antifactor Xa ([1]; Test 2d: subcutaneous injection 0.200 mg/kg, 0.50 h): 0.13 units/ml | plasma level, Antifactor Xa ([1]; Test 2d: subcutaneous injection 0.200 mg/kg, 1.00 h): 0.17 units/ml | plasma level, Antifactor Xa ([1]; Test 2d: subcutaneous injection 0.200 mg/kg, 2.00 h): 0.22 units/ml | plasma level, Antifactor Xa ([1]; Test 2d: subcutaneous injection 0.200 mg/kg, 4.00 h): 0.26 units/ml | plasma level, Antifactor Xa ([1]; Test 2d: subcutaneous injection 0.200 mg/kg, 6.00 h): 0.24 units/ml | plasma level, Antifactor Xa ([1]; Test 2d: subcutaneous injection 0.200 mg/kg, 8.00 h): 0.15 units/ml | plasma level, Antifactor Xa ([1]; Test 2d: subcutaneous injection 0.200 mg/kg, 10.00 h): 0.12 units/ml | plasma level, Antifactor Xa ([1]; Test 2d: subcutaneous injection 0.200 mg/kg, 16.00 h): 0.06 units/ml | plasma level, Antifactor Xa ([1]; Test 2d: subcutaneous injection 0.200 mg/kg, 24.00 h): 0.00 units/ml | plasma level, Antifactor Xa ([1]; Test 2d: subcutaneous injection 0.200 mg/kg, 30.00 h): 0.00 units/ml | plasma level, Antifactor Xa ([1]; Test 2d: subcutaneous injection 0.200 mg/kg, […]): 0.06 units/ml
